Structures are written as SMILES. pIC50: −log10 of the molar value.

Assay [1] has as its system KDM. The conditions noted are these: Table 9; cited from earlier work.
The target of assay [2] is gamma secretase. The conditions noted are these: SH-SY5Y cells; read-out: Lit cell conc, IC50; cited from earlier work.
For assay [3], the system named is Lgr5+ cochlear cells. The assay can be described thus: Lgr5+ Assay (in vitro Lgr5+ cell proliferation assay). Format: cell-based. The conditions noted are these: Table 6.
Assay [4] concerns the target T1, KDM1b (Homo sapiens, UniProt Q8NB78).
T1 sequence (Q8NB78 1-822): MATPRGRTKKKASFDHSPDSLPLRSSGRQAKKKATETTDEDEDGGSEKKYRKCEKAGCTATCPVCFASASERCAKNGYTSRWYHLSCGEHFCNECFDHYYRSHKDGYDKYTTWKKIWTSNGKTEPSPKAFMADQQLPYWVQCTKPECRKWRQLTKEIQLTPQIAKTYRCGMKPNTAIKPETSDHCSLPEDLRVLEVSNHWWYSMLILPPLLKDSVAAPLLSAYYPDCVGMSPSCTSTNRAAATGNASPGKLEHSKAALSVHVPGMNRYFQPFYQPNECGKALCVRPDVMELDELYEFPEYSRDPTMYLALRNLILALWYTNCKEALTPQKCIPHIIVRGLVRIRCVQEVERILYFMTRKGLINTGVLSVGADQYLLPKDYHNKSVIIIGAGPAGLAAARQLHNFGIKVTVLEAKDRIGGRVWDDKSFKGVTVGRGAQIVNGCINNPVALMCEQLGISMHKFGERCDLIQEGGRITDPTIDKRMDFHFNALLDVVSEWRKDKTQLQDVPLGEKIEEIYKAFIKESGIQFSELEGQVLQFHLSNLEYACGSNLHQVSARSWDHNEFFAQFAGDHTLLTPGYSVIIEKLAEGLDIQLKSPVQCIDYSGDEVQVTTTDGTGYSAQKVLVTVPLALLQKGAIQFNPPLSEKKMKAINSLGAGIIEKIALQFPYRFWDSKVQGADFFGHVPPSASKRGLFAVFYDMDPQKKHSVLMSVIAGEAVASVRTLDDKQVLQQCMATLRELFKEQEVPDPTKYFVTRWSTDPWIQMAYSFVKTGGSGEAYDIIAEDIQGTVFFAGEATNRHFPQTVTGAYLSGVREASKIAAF
The conditions noted are these: Table 6; read-out: Select KDM 1b; cited from earlier work.

The target in assay [5] is T2, MAO A (Homo sapiens, UniProt P21397).
T2 sequence (P21397 1-527): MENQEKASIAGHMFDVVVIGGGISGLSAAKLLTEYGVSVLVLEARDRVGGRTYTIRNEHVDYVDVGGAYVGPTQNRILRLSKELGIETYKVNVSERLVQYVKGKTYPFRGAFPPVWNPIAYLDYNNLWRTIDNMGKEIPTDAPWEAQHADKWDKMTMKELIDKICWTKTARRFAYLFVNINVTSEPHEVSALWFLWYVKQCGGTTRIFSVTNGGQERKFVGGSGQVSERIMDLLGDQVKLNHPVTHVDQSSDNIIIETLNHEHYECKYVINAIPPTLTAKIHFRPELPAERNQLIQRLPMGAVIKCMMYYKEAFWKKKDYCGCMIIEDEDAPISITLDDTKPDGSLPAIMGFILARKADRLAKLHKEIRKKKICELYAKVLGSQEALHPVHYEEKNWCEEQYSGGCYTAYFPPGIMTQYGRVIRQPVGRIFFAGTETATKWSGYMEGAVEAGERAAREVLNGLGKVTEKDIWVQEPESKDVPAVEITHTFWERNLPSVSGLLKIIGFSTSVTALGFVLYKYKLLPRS
The conditions noted are these: Table 6; marked A or first value of cell; read-out: Select MAOs A and B: MAO A; cited from earlier work.

The target of assay [6] is LSD1 (Homo sapiens, UniProt O60341). The conditions noted are these: Table 6; cited from earlier work.
For assay [7], the system named is KDM2. The conditions noted are these: Table 9; read-out: Select KDM2; cited from earlier work.
For assay [8], the target named is HER 2 (Homo sapiens, UniProt P04626). The conditions noted are these: Table 13; cited from earlier work.
Sequence of HER 2 (P04626 23-1255): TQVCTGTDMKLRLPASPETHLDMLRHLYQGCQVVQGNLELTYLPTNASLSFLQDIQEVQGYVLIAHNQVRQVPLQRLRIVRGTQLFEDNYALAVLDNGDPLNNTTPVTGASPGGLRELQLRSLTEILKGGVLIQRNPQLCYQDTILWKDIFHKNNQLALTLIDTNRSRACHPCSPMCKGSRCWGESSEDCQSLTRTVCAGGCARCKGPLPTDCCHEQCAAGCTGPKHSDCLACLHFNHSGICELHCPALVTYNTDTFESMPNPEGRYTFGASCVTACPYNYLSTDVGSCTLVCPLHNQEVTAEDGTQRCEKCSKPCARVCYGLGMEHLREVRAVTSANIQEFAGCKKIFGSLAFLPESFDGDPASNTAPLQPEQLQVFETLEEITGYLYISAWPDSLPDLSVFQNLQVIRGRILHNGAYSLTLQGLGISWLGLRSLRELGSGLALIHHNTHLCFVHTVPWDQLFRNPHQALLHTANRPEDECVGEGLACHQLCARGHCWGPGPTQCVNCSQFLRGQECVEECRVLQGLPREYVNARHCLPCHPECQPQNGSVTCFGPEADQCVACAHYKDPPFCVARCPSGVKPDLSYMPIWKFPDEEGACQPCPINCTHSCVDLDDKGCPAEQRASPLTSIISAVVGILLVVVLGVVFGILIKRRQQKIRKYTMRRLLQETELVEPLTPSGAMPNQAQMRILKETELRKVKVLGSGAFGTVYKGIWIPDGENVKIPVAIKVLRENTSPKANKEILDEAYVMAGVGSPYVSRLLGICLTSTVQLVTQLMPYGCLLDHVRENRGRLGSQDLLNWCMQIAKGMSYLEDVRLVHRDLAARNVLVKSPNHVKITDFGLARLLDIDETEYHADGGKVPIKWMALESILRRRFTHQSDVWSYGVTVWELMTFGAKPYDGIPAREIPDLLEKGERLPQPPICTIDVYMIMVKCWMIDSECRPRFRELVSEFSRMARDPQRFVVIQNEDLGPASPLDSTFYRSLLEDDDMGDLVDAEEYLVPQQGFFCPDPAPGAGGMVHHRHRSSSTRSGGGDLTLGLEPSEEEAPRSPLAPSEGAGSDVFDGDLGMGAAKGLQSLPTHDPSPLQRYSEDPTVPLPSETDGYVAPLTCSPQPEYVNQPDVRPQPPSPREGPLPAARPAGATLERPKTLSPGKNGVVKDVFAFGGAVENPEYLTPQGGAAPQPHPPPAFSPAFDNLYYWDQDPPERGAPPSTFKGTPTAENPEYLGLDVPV
Assay [9] addresses HER 4 (Homo sapiens, UniProt Q15303). The conditions noted are these: Table 13; cited from earlier work.

Sequence of HER 4 (Q15303 26-1308): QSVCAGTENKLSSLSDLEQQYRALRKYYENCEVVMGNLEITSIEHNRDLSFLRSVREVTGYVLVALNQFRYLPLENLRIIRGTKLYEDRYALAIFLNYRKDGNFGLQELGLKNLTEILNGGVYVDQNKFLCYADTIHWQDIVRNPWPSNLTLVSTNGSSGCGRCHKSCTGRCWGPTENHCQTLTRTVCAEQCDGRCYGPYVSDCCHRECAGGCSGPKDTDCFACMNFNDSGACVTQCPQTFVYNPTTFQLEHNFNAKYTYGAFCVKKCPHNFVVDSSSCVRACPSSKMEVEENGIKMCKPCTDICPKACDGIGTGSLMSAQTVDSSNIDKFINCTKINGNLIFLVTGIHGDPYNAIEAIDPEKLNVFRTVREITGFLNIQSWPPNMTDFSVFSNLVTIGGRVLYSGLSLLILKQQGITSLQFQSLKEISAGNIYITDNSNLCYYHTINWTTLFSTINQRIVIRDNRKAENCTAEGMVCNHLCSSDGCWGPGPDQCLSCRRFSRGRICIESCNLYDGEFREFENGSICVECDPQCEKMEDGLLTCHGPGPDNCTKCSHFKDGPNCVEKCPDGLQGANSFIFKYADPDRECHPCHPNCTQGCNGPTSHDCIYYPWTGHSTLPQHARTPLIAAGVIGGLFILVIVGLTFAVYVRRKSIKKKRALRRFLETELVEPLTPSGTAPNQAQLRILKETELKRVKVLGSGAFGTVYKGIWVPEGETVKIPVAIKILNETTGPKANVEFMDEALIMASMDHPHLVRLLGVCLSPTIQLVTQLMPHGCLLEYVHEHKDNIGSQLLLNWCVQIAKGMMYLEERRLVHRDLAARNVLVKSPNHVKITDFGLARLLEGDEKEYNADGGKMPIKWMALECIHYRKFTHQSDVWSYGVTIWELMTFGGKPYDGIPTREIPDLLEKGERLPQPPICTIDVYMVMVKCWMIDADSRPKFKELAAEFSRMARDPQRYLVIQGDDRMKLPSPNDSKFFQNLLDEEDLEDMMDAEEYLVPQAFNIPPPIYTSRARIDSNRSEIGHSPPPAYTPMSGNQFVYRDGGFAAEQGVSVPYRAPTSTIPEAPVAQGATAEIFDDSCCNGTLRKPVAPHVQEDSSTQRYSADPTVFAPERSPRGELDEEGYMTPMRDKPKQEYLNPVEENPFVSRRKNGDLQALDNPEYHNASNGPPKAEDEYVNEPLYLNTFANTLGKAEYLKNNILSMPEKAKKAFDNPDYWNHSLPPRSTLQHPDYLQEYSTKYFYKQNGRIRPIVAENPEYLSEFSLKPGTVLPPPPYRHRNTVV

On to `O=C(O)CCNc1cc(N2CCc3ccccc3CC2)nc(-c2ccccn2)n1` [GSK-J1], for which the “Lit Cell” value in [1] was 50 µM.

For `O=C(O)CCC1CCC(c2cc(F)ccc2F)(S(=O)(=O)c2ccc(Cl)cc2)CC1` (stereo not drawn) [MK-0572], the pIC50 in [2] was 8.30.

Turning to `N[C@H]1CC[C@H](N[C@@H]2C[C@H]2c2ccccc2)CC1` [ORY-1001], the “Lgr5+ Assay” value in assay [3] is reported as 41 nM. For the same compound, the pIC50 in assay [4] and in assay [5] was < 4.00 throughout. Besides, the “Literat. Cell” value in assay [6] is 0.5 to 3 nM.

As to `O=C(O)CCN(O)C(=O)CCCCCCCCC1CC1` [TC-E 5002], the pIC50 in [7] was 5.17.

Take `C=CC(=O)N1CCC(Oc2cc3c(Nc4ccc(Cl)c(Cl)c4F)ncnc3cc2OC)CC1` [poziotinib]: the pIC50 in [8] was 8.30; in [9], 7.64.

The values are drawn from patent US20220175776A1, “COMBINATION OF CHIR99021 AND VALPROIC ACID FOR TREATING HEARING LOSS” (Frequency Therapeutics, Inc., priority 2019, published 2022).
